Tests used:
[1] = system: blowfly larvae (Lucilia cuprina); experiment: Blowfly larval bioassay; assay type: in vivo; settings: for Blowfly bioassay, pupation, IC50: L. cuprina LS strain, number of pupae on Day 9 vs controls, 2 experiments; for Pupation IC50 relative to larval weight gain IC50: ratio of the two bioassay IC50 values; for Insecticidal activity in the blowfly bioassay (in words): blowfly larval bioassay
[2] = system: HDAC activity of nuclear extracts from blowfly eggs; experiment: Fluorometric HDAC enzyme assay with nuclear extracts from blowfly eggs; assay type: biochemical, Lucilia cuprina; settings: blowfly egg nuclear extract IC50 comparison
[3] = larval bioassay IC50 comparison

| SMILES | Blowfly bioassay, pupation, IC50 [1] | other results |
| --- | --- | --- |
| O=C(/C=C/c1cccc(S(=O)(=O)Nc2ccccc2)c1)NO [Belinostat] | >1000 μg/assay | – |
| CCCC(CCC)C(=O)O [Valproic acid] | >1000 μg/assay | – |
| CCCC(=O)OCOC(=O)C(C)(C)C [AN-9] | >1000 μg/assay | – |
| CC(/C=C/C(=O)NO)=C\[C@@H](C)C(=O)c1ccc(N(C)C)cc1 [Trichostatin] | 20.6 μg/assay | Potency against blowfly larval growth relative to cyromazine (fold less potent) [1, 3]: approximately 10 fold; Pupation IC50 relative to larval weight gain IC50 [1]: ≤ 2 fold |
| CCCCN(Cc1ccc(C(=O)NO)cc1)C(=O)Nc1ccccc1 [Nexturostat, Nexturastat A] | >1000 μg/assay | – |
| CN(C)Cc1ccc(S(=O)(=O)n2ccc(/C=C/C(=O)NO)c2)cc1 [Resminostat] | >1000 μg/assay | – |
| O=C(NC(=O)c1c(F)cccc1F)Nc1ccc(Cl)cc1 [Diflubenzuron] | 0.119 μg/assay | – |
| C#Cc1cccc(Nc2ncnc3cc(OC)c(OCCCCCCC(=O)NO)cc23)c1 [CUDC-101] | >1000 μg/assay | – |
| COc1ccc(-c2nc(N3CCOCC3)c3sc(CN(C)c4ncc(C(=O)NO)cn4)cc3n2)cn1 [CUDC-907] | 13.8 μg/assay | Potency against blowfly larval growth relative to cyromazine (fold less potent) [1, 3]: approximately 10 fold; Pupation IC50 relative to larval weight gain IC50 [1]: approximately equal |
| CN1CCc2c(c3ccccc3n2Cc2ccc(C(=O)NO)cc2)C1 [Tubastatin A] | >1000 μg/assay | Insecticidal activity in the blowfly bioassay (in words) [1]: inactive |
| N#Cc1c(N)nc(NC2CC2)nc1N [Dicyclanil] | 0.0634 μg/assay | – |
| C/C=C1\NC(=O)[C@H]2CSSCC/C=C/[C@H](CC(=O)N[C@H](C(C)C)C(=O)N2)OC(=O)[C@H](C(C)C)NC1=O [Romidepsin] | 0.196 μg/assay | Potency against blowfly larval growth relative to cyromazine (fold more potent) [1, 3]: 10 fold; Potency against blowfly larval growth relative to dicyclanil ([1]; larval bioassay IC50 comparison, in words): equipotent; Pupation IC50 relative to larval weight gain IC50 [1]: ≤ 2 fold; Potency in nuclear extract HDAC assay relative to quisinostat (fold more potent) [2]: approximately 600 fold |
| CCC(=O)CCCCC[C@@H]1NC(=O)[C@H]2CCCCN2C(=O)[C@H]([C@@H](C)CC)NC(=O)[C@H](Cc2cn(OC)c3ccccc23)NC1=O [Apicidin] | 489 μg/assay | Pupation IC50 relative to larval weight gain IC50 [1]: 6 fold |
| CCCCc1nc2cc(/C=C/C(=O)NO)ccc2n1CCN(CC)CC [Pracinostat] | >1000 μg/assay | – |
| Cc1[nH]c2ccccc2c1CCNCc1ccc(/C=C/C(=O)NO)cc1 [Panobinostat] | 393 μg/assay | – |
| CCN(CC)Cc1ccc2cc(COC(=O)Nc3ccc(C(=O)NO)cc3)ccc2c1 [Givinostat] | >1000 μg/assay | – |
| C=C1C(=O)O[C@H]2[C@H]1CC/C(C)=C/CC[C@@]1(C)O[C@@H]21 [Parthenolide, parthenolide] | >1000 μg/assay | Insecticidal activity in the blowfly bioassay (in words) [1]: no insecticidal activity |
| O=C(CCCCCCC(=O)Nc1ccc([C@H]2O[C@@H](CSc3nc(-c4ccccc4)c(-c4ccccc4)o3)C[C@@H](c3ccc(CO)cc3)O2)cc1)NO [Tubacin] | >1000 μg/assay | Insecticidal activity in the blowfly bioassay (in words) [1]: inactive |
| O=C(NCCSSCCNC(=O)/C(Cc1ccc(O)c(Br)c1)=N/O)/C(Cc1ccc(O)c(Br)c1)=N/O [Psammaplin A] | 93.4 μg/assay | – |
| Nc1ccccc1NC(=O)c1ccc(CNc2nccc(-c3cccnc3)n2)cc1 [Mocetinostat] | >1000 μg/assay | – |
| Cn1cc(CNCC2CCN(c3ncc(C(=O)NO)cn3)CC2)c2ccccc21 [Quisinostat] | 274 μg/assay | – |
| Nc1ccccc1NC(=O)c1ccc(CNC(=O)OCc2cccnc2)cc1 [Entinostat] | 640 μg/assay | – |
| Nc1nc(N)nc(NC2CC2)n1 [Cyromazine] | 1.54 μg/assay | – |

Source: PMC5247571 (International Journal for Parasitology: Drugs and Drug …, 2017)
